Measurements reported in PubChem BioAssay (NCI).
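Briefly, cells in 96-well plates were exposed to five compound concentrations for 48 h, and endpoints were estimated by linear interpolation. GI50 is the concentration that inhibits growth by half. At the TGI there is no net growth.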

Columns and labels:
Experiment in all cases: NCI anticancer screen, dose series, 48 h
MDA-MB-231 breast = tested on: MDA-MB-231 breast
M14 melanoma = tested on: M14 melanoma
ACHN renal = tested on: ACHN renal
T-47D breast = tested on: T-47D breast
HCT-116 colon = tested on: HCT-116 colon
PC-3 prostate = tested on: PC-3 prostate
OVCAR-3 ovarian = tested on: OVCAR-3 ovarian
HT29 colon = tested on: HT29 colon
MALME-3M melanoma = tested on: MALME-3M melanoma
MCF7 breast = tested on: MCF7 breast

SMILES	GI50 (MDA-MB-231 breast) [µM]	TGI (MDA-MB-231 breast) [µM]	GI50 (M14 melanoma) [µM]	TGI (M14 melanoma) [µM]	GI50 (ACHN renal) [µM]	TGI (ACHN renal) [µM]	GI50 (T-47D breast) [µM]	TGI (T-47D breast) [µM]	GI50 (HCT-116 colon) [µM]	TGI (HCT-116 colon) [µM]	GI50 (PC-3 prostate) [µM]	TGI (PC-3 prostate) [µM]	GI50 (OVCAR-3 ovarian) [µM]	TGI (OVCAR-3 ovarian) [µM]	GI50 (HT29 colon) [µM]	TGI (HT29 colon) [µM]	GI50 (MALME-3M melanoma) [µM]	TGI (MALME-3M melanoma) [µM]	GI50 (MCF7 breast) [µM]	TGI (MCF7 breast) [µM]
COC(=O)/C(=C/N1CCN(C(=O)c2ccco2)C1=S)C(C)=O	9.01	26.5	10.7	24.4	4.05	17.8	6.02	29.8	7.42	24.2	18.1	> 100	2.67	11.6	15.8	46	5.64	50.4		
C[C@]12CC[C@@H]3c4ccc(O)cc4CC[C@H]3[C@@H]1CC[C@@H]2NS(=O)(=O)c1cccc(Br)c1	3.88	13.9	3.69	13.7	2.91	8.61	5.05	17.6	3.03	10.2	2.83	12.2			3.76	12.7	2.27	7.58	3.74	10.9
O=C1OC(c2ccc([N+](=O)[O-])cc2)=N/C1=C\c1ccc(O)cc1		> 100		> 100		> 100		> 100		> 100		> 100		> 100		> 100		> 100		> 100
NC(C(=O)O)C(N)C(=O)O (stereo not drawn)		> 100		> 100		> 100		> 100		> 100		> 100		> 100		> 100		> 100		> 100
Cc1oc2c(c1C(=O)c1ccccc1)C(=O)c1ccccc1C2=O		7.07		10.1		15.3		7.04		8.76		21.7		6.22		39.6		4.53		10.6
COc1ccc2cc(C(=O)/C=C/c3ccc(OC)c(OC)c3)ccc2c1	4.75	42.8	11.2	25.7	14.5	31.2	43.4	> 100	2.69	10.3	20.2	> 100	14.8	> 100	11.9	76.4	> 100	> 100	1.43	7.33
O=[N+]([O-])c1ccc2nc(N/N=C/c3ccc(O)cc3)sc2c1	6.06	> 100			4.63	> 100	3.01	13.2	2.89	> 100	4.51	34.2	3.4	14.6	8.31	28	19.7	> 100	3.17	70.5
Clc1ccc2c(NCCCN3CCN(c4nc(-n5ccnc5)nc5ccccc45)CC3)ccnc2c1					> 23.4	> 56.5	> 100	> 100				> 100	1.55	3.15	1.88	4.47	1.91	3.56		
Cc1ccc(NC2=C(Cl)C(=O)c3nc(C)ccc3C2=O)cc1	1.41	2.96	1.67	3.22	1.59	2.97	1.08	3.3	1.32	2.68	1.19	2.78	0.395	1.39	2.79	8.46	1.75	3.23		
CC1=COC2=C(C)C(=O)C(=O)c3c(C)ccc1c32		23.6		13.8		29.5		27.7		20.6		22.5				12.8		16		8.92
C=CC1=C(C)C2=NC1=CC1=NC(=C(CC)/C1=C/O)C=C1C=C3C(=O)C(C(=O)OC)C(=C4NC(=C2)C(C)C4CCC(=O)OC/C=C(\C)CCCC(C)CCCC(C)CCCC(C)C)C3=N1 (stereo not drawn) (tested in a mixture with another compound)		> 100		> 100		> 100		> 100		> 100		> 100		> 100		> 100				> 100
COc1cc(C2C(C(=O)O)=C(C)Oc3cc4c(cc32)OCO4)cc(OC)c1OC (stereo not drawn)				> 100		> 100				> 100				48.1		> 100		> 100		
N#Cc1cccc(Nc2nccc(-c3cnn4ncccc34)n2)c1			0.00525	0.0125	0.00487	> 25	0.0182	0.219	0.00443	1.34	0.00745	> 25	0.00541	0.015	0.00572	0.034	0.0076	0.0209	0.00856	> 25
O=C(N/N=C/c1cc2ccccc2c2ccccc12)c1cc(O)c(O)c(O)c1	2.7	10.1	4.34	18.2	3.25	12.6	2.23	7.24	3.17	12.4	3.28	15.6			9.95	31	2.27	7.19	3.68	19.7
COC(=O)C1CCc2c(OC)ccc(OC)c2C1=O (stereo not drawn)				> 100		> 100				> 100				> 100		> 100		> 100		
C/C=C(/C)C(=O)OC1C=C(CO)C(=O)C(OC(=O)/C(C)=C\C)C1C(C)C (stereo not drawn)	0.751	1.9	0.795	2.26	0.541	1.69			0.49	1.67	0.599	1.8	0.48	1.66	0.625	2.33	0.61	1.63	0.416	2.16
O=C1OC(=O)C2C3CCC(O3)C12 (stereo not drawn)				> 100		> 100				> 100				> 100		> 100		> 100		
